In patent US11220503B2, “Phthalazine derivatives, preparation method, pharmaceutical composition and usage thereof” (Shanghai SIMR Biotech Co., Ltd., priority 2015, dated 2022):

Columns and labels:
[1] = Compound tissue distribution (brain/plasma); format: in vivo; conditions: brain and plasma, po; rat, 1 mg/kg p.o. in 5% DMSO+70% PEG400+25% H2O, one hour; read-out: Brain/Plasma ratio
Procedure: The distribution ratio of blood brain tissue was calculated by comparing the concentration of compound in rat plasma and brain tissue. The experimental animals were divided into two groups, the plasma group and the brain group, each with three. To measure brain to plasma ratio, rats were administed compounds in 50% PEG400 p.o. at a dose of 10 mg compound to be tested/kg. One hour later, plasma and brain samples were taken. Concentrations of compounds in brain and plasma were detected using LC-MS/MS-AJ (Triple Quad 5500) assay and analyzed using Phoenix WinNonlin.
We also measured the brain to plasma ratio of compound #24. The experimental animals were divided into two groups, the plasma group and the brain group, each with three. To measure the brain to plasma ratio, Rats were administered compounds (1 mg/kg in 5% DMSO+70% PEG400+25% H2O p.o.). One hour later, plasma and brain samples were taken. Concentrations of compounds in brain and plasma were detected using a LC-MS/MS-AJ (Triple Quad 5500) assay and analyzed using Phoenix WinNonlin.

α5β3γ2 receptor [2] = target: T1, α5β3γ2 receptor (Homo sapiens, UniProt P18507+P31644); experiment: Supplementary data for cell level screening: new electrophysiology method (I. Lecker et al); format: cell-based; conditions: for Inverse agonism efficacy(%): new method, CsCl intracellular solution, GABA 0.1˜0.3 CM, other procedures as previous method; for inverse agonism efficacy of the compound/α5IA inverse agonism efficacy: ratio to the α5IA reference run above in the table (r4 or r29)
T1 construct: expressed in transfected cells; host or cells: HEK-293 (stably transfected)
Procedure: The inventors used electrophysiological methods to assay the inverse agonist efficacy of the substance to be tested. The detailed procedures are as follows: (1) Different subunits of GABAA receptors were expressed in human embryonic kidney cells 293 (HEK293). The cells were cultured in a culture medium and used as a cell model for screening potential analgesics. The α, β and γ subunits are necessary to form complete functional GABAA receptors. In this example, the inventor has established the following cell model: (a) α5 subunit (protein sequence is GenBank accession number: NP_001158509), β3 subunit (protein sequence is GenBank accession number: NP_068712) and γ2 subunit (protein sequence is GenBank accession number: NP_944494) were expressed in HEK-293 cell lines at the same time, which formed the complete functional GABAA receptors. (2) Cells were stably transfected HEK-293 cells expressing α5β3γ2 receptor, which were labeled by green fluorescent protein (GFP). Cells were grown in 10 cm dishes. The cells were passaged after reaching 80-90% confluence. During passaging, the culture medium was removed and discarded, 3 mL DMEM medium (Gibco™) was added to the dishes, the dishes were shaken slightly, and DMEM was removed and discarded. 3 mL Trypsin (Trypsin-EDTA 0.05%, Gibco™) was added and cells were digested at 37° C. for 3 minutes. Then 3 mL complete growth medium (DMEM+10% horse serum (Gibco™)) was added and the cells at the bottom of the culture dishes were dispersed. The cell suspension were transferred to a 15 mL centrifugal tube (Corning®) and then centrifuged at 200 g for 3 minutes. The supernatant was discarded, 4 mL complete growth medium was added, and the cells were resuspended by gently blowing. The cell suspension was diluted by 1:5 or 1:10 for subculturing. The cell suspension was diluted by 1:12 for electrophysiology experiment, which are added to the 24 well plate (Corning®) which has a glass slide pre-treated with poly-D-lysine. The cells were adhered to the slide before the experiment was conducted. The cells were maintained in culture for no more than 24 hours before use. (3) Compound concentration: for screening, all compounds were diluted to a final concentration of 100 nM. […] The compounds were at the concentration of 1 nM, 10 nM, 50 nM, 100 nM and 1000 nM in dose-inverse agonism efficacy (%) experiment. The whole cell patch clamp technique was used in electrophysiology experiments. The extracellular solution (ECS) contained: 150 mM NaCl, 5 mM KCl, 2.5 mM CaCl2, 1 mM MgCl2, 10 mM HEPES and 10 mM glucose (pH 7.4); […], 5 mM EGTA, 10 mM HEPES ([…] water). The currents were recorded by an EPC-10 amplifier and the PatchMaster software (HEKA). Patch electrodes with a resistance of 5-6 MΩ were pulled from borosilicate glass (Sutter). The diluted compounds were perfused by OCTAFLOWII system. GFP positive and independently growing cells were selected for recording. During recording, the membrane voltage was clamped at −60 mV. During experiment, the cells were firstly perfused with ECS for 20 seconds. When the baseline reached to a stable state, cells were then perfused with GABA solution. Then the current induced by GABA can be detected. After about 20-40 seconds, the current was stable. ECS was switched to compounds solution and the effects of the compounds were detected. At last, the perfusion solution was switched to ECS. The experiment was finished when the post-baseline returned to the pre-baseline before compounds perfusion. Only the data whose pre-baseline and post-baseline are at almost the same level were used for analysis. […] Then, compounds were diluted at the desired concentration in GABA ECS. (4) Currents were analyzed with the PatchMaster (HEKA) software. The GABA currents before (Ipre) and after (Ipost) compounds perfusion were recorded respectively. The efficacies of compounds were calculated by the following equation: inverse agonism efficacy=(Ipost-Ipre)*100/Ipre. N indicates experiment numbers. […]

α5β3γ2 receptor [3] = target: T1, α5β3γ2 receptor; experiment: Cell level screening: whole cell patch clamp, inverse agonist efficacy; format: cell-based; conditions: for inhibition at 0.1 µM: HEK293, compound 100 nM, GABA 0.05-0.1 μM, HEK293 α5β3γ2, clamped at −60 mV, (Ipost-Ipre)*100/Ipre, read-out: inverse agonism efficacy(%); for inverse agonism efficacy of the compound/α5IA inverse agonism efficacy: ratio to α5IA, compound 100 nM
Procedure: The inventors used electrophysiological methods to assay the inverse agonist efficacy of the substance to be tested. The detailed procedures are as follows: (1) Different subunits of GABAA receptors were expressed in human embryonic kidney cells 293 (HEK293). The cells were cultured in a culture medium and used as a cell model for screening potential analgesics. The α, β and γ subunits are necessary to form complete functional GABAA receptors. In this example, the inventor has established the following cell model: (a) α5 subunit (protein sequence is GenBank accession number: NP_001158509), β3 subunit (protein sequence is GenBank accession number: NP_068712) and γ2 subunit (protein sequence is GenBank accession number: NP_944494) were expressed in HEK-293 cell lines at the same time, which formed the complete functional GABAA receptors. (2) Cells were stably transfected HEK-293 cells expressing α5β3γ2 receptor, which were labeled by green fluorescent protein (GFP). Cells were grown in 10 cm dishes. The cells were passaged after reaching 80-90% confluence. During passaging, the culture medium was removed and discarded, 3 mL DMEM medium (Gibco™) was added to the dishes, the dishes were shaken slightly, and DMEM was removed and discarded. 3 mL Trypsin (Trypsin-EDTA 0.05%, Gibco™) was added and cells were digested at 37° C. for 3 minutes. Then 3 mL complete growth medium (DMEM+10% horse serum (Gibco™)) was added and the cells at the bottom of the culture dishes were dispersed. The cell suspension were transferred to a 15 mL centrifugal tube (Corning®) and then centrifuged at 200 g for 3 minutes. The supernatant was discarded, 4 mL complete growth medium was added, and the cells were resuspended by gently blowing. The cell suspension was diluted by 1:5 or 1:10 for subculturing. The cell suspension was diluted by 1:12 for electrophysiology experiment, which are added to the 24 well plate (Corning®) which has a glass slide pre-treated with poly-D-lysine. The cells were adhered to the slide before the experiment was conducted. The cells were maintained in culture for no more than 24 hours before use. (3) Compound concentration: for screening, all compounds were diluted to a final concentration of 100 nM. GABA was diluted at the concentration of 0.05-0.1 μM. The compounds were at the concentration of 1 nM, 10 nM, 50 nM, 100 nM and 1000 nM in dose-inverse agonism efficacy (%) experiment. The whole cell patch clamp technique was used in electrophysiology experiments. The extracellular solution (ECS) contained: 150 mM NaCl, 5 mM KCl, 2.5 mM CaCl2, 1 mM MgCl2, 10 mM HEPES and 10 mM glucose (pH 7.4); Patch electrodes were filled with an intracellular solution containing: 140 mM KCl, 5 mM EGTA, 10 mM HEPES (adjusted to pH 7.4 with KOH and to 320-330 mOsm with water). The currents were recorded by an EPC-10 amplifier and the PatchMaster software (HEKA). Patch electrodes with a resistance of 5-6 MΩ were pulled from borosilicate glass (Sutter). The diluted compounds were perfused by OCTAFLOWII system. GFP positive and independently growing cells were selected for recording. During recording, the membrane voltage was clamped at −60 mV. During experiment, the cells were firstly perfused with ECS for 20 seconds. When the baseline reached to a stable state, cells were then perfused with GABA solution. Then the current induced by GABA can be detected. After about 20-40 seconds, the current was stable. ECS was switched to compounds solution and the effects of the compounds were detected. At last, the perfusion solution was switched to ECS. The experiment was finished when the post-baseline returned to the pre-baseline before compounds perfusion. Only the data whose pre-baseline and post-baseline are at almost the same level were used for analysis. GABA was diluted at the concentration of 0.05-0.1 μM in ECS. Then, compounds were diluted at the desired concentration in GABA ECS. (4) Currents were analyzed with the PatchMaster (HEKA) software. […]

α5-GABAA = target: T2, α5-GABAA (Homo sapiens, UniProt P31644); conditions: cited from earlier work
T2 sequence (P31644 32-462): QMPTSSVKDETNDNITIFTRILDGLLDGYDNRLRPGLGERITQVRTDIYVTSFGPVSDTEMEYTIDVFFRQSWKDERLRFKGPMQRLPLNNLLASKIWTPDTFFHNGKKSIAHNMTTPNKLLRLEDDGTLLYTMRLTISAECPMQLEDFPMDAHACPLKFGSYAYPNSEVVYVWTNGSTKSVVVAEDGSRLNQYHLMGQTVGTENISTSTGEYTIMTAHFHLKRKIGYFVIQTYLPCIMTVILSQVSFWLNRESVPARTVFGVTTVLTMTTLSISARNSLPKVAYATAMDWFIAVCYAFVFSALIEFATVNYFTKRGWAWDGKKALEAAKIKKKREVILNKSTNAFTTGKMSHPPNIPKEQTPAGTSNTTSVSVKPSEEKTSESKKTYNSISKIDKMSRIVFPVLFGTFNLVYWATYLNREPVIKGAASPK

α5-GABAA receptor = conditions: cited from earlier work

T1 sequence (P28472 26-473 isoform P28472-2 partner limits assumed, one chain of several): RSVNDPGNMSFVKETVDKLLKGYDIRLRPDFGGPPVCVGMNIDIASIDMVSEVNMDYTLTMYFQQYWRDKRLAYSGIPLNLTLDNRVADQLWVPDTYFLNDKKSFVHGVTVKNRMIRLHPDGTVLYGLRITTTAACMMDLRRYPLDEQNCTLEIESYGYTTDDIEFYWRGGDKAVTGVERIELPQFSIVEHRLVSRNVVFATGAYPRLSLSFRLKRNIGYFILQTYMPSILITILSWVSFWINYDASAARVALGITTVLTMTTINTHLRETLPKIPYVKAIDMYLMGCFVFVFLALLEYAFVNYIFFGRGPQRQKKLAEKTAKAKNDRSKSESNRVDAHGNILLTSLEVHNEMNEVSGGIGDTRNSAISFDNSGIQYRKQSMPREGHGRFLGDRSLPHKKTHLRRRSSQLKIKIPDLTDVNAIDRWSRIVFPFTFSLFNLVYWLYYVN
T1 sequence (P18507 40-475, one chain of several): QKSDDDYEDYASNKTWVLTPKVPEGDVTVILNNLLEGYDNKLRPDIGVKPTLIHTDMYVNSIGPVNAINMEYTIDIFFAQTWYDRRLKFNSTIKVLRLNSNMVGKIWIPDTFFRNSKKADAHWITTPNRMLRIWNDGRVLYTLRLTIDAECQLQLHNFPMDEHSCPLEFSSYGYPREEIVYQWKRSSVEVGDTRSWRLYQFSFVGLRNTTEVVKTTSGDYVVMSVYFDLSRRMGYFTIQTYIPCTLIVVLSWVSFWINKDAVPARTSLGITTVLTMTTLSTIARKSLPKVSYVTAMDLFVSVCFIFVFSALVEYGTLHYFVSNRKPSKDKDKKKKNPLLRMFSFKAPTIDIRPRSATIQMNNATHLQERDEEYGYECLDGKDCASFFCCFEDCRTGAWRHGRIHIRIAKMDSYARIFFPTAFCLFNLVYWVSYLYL

| Inverse agonism efficacy(%) (α5β3γ2 receptor [2]) | inverse agonism efficacy of the compound/α5IA inverse agonism efficacy (α5β3γ2 receptor [2]) | inhibition at 0.1 µM (α5β3γ2 receptor [3]) | inverse agonism efficacy of the compound/α5IA inverse agonism efficacy (α5β3γ2 receptor [3]) | SMILES | also measured |
| --- | --- | --- | --- | --- | --- |
| −34.5% | 1.855 | – | – | Cc1cc(-c2nnc3c4ccccc4c(OCc4ccc(C(=O)NCC5CC5)cn4)nn23)no1 [Compound 24, N-(cyclopropylmethyl)-6-(((3-(5-methylisoxazol-3-yl)-[1,2,4]triazolo[3,4-a]phthalazin-6-yl)oxy)methyl)nicotinamide] | Kp at 1 h [1]: 0.044 |
| −31.6% | 1.819 | 33.3% | 1.4765 | C[C@H](CO)NC(=O)c1ccc(COc2nn3c(-c4cc(CO)on4)nnc3c3ccccc23)c(C#N)c1 [Compound 55, (R)-3-cyano-4-(((3-(5-(hydroxymethyl)isoxazol-3-yl)-[1,2,4]triazolo[3,4-a]phthalazin-6-yl)oxy)methyl)-N-(1-hydroxypropan-2-yl)benzamide] | – |
| −25% | 1.439 | 38.3% | 1.6973 | Cc1nc(-c2nnc3c4ccccc4c(OCc4ccc(C(=O)N[C@H](C)CO)cn4)nn23)no1 [Compound 57, (R)—N-(1-hydroxypropan-2-yl)-6-(((3-(5-methyl-1,2,4-oxadiazol-3-yl)-[1,2,4]triazolo[3,4-a]phthalazin-6-yl)oxy)methyl)nicotinamide] | – |
| −27% | 1.554 | 30% | 1.33 | Cc1cc(-c2nnc3c4ccccc4c(OCc4cc(C(=O)N[C@H](C)CO)on4)nn23)no1 [Compound 58, (R)—N-(1-hydroxypropan-2-yl)-3-(((3-(5-methylisoxazol-3-yl)-[1,2,4]triazolo[3,4-a]phthalazin-6-yl)oxy)methyl)isoxazole-5-carboxamide] | – |
| – | – | – | – | CCOC(=O)c1ncn2c1[C@@H]1CCCN1C(=O)c1cc(OC)ccc1-2 [L-655,708] | inhibition efficacy (α5-GABAA; GABA 1 μM, highest dose of L-655,708): ~15%; inhibition of the current induced by low level GABA (α5-GABAA; GABA 5, 50 and 500 nM): in the concentration dependent manner; inhibition on the current induced by GABA (α5-GABAA; GABA concentration higher than 1 μM): no inhibition |
| – | – | – | – | Cc1cc(-c2nncc3c(C(C)(C)C)c(OCc4ncnn4C)nn23)no1 [MRK016, 3-tert-butyl-7-(5-methylisoxazol-3-yl)-2-(1-methyl-1H-1,2,4-triazol-5-ylmethoxy) pyrazolo[1,5-d][1,2,4]triazine] | blocking of the binding of (^3H) R0-15-1788 in brain (α5-GABAA receptor): could efficiently block the binding |
| – | – | – | – | Cn1ncnc1COc1nn2c(-c3cc(CO)on3)nncc2c1C(C)(C)C [MRK016-M3] | blocking of the binding of (^3H) R0-15-1788 in brain (α5-GABAA receptor): almost no blocking effect |
